In patent US11028090B2 (Dong Wha Pharm. Co., Ltd., priority 2017, dated 2021):
pIC50: −log10 of the molar value. Where two headings read alike, the source gives them in different places.

Tests used:
[1] = molecular target: BRD4 (BD1+BD2) bromodomain (Homo sapiens (Human), UniProt O60885); assay: BRD4 binding inhibition (AlphaScreen, GST-BRD4 vs tetraacetylated histone H4 peptide)
In short: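 AlphaScreen read after 30 min dark incubation at room temperature with glutathione acceptor/streptavidin donor beads (10 μg/ml each). The beads were added to compound plus 100 nM biotin-H4 (K5,8,12,16-acetyl) peptide and 100 nM GST-BRD4 BD1+BD2 in pH 7.4 HEPES/Tween/BSA/DTT buffer.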

[2] = tested on: acute myelogenous leukemia cells (MV-4-11 cells); assay: Cytotoxicity to acute myelogenous leukemia cells (MV-4-11 cells), CCK-8; details: Homo sapiens, MV4-11, 72 h
[3] = GST-BRD4 (BD1+BD2) / biotinylated acetyl-histone H4 (Lys5,8,12,16) peptide, read-out: IC50, BRD4 binding inhibition
[4] = GST-BRD4 (BD1+BD2) vs biotinylated acetyl-histone H4 peptide, AlphaScreen, read-out: BRD4 IC50
[5] = read-out: MV-4-11 Cytotoxicity IC50
[6] = read-out: IC50, cytotoxicity against acute myelogenous leukemia cells

SMILES	pIC50 [1, 3]	pIC50 [1, 4]	pIC50 [2, 5]	pIC50 [2, 6]
CCOc1cc2nc(NCCCCNC(=O)OC(C)C)c3nnc(C)n3c2cc1OCC [Example 175, [4-(7,8-diethoxy-1-methyl-[1,2,4]triazolo[4,3-a]quinoxaline-4-ylamino)-butyl]-carbamic acid isopropylester]	≥ 7.30	7.59	6.59	–
COc1cc2nc(NCCCCC(=O)NCC(C)C)c3nnc(C)n3c2cc1OC [Example 648, 5-(7,8-dimethoxy-1-methyl-[1,2,4]triazolo[4,3-a]quinoxaline-4-ylamino)-pentanoic acid-isobutylamide]	≥ 7.30	7.57	6.89	≥ 6.70
Cc1nnc2c(NCCCCNC(=O)OC(C)(C)C)nc3cc(-n4ccnc4)ccc3n12 [Example 490, [4-(7-imidazole-1-yl-1-methyl-[1,2,4]triazolo[4,3-a]quinoxaline-4-ylamino)-butyl]-carbamic acid-tert-butylester]	≥ 8.00	8.05	6.72	≥ 6.70
CCc1nnc2c(NCCCCNC(=O)OC(C)(C)C)nc3cc(OC)c(OC)cc3n12 [Example 594, [4-(1-ethyl-7,8-dimethoxy-[1,2,4]triazolo[4,3-a]quinoxaline-4-ylamino)-butyl]-carbamic acid-tert-butylester]	–	7.12	6.06	–
CCC(CC)C(=O)NCCCCNc1nc2cc(OC)c(OC)cc2n2c(C)nnc12 [Example 78, N-[4-(7,8-dimethoxy-1-methyl-[1,2,4]triazolo[4,3-a]quinoxaline-4-ylamino)-butyl]-2-ethyl-butyramide]	≥ 7.30	7.70	6.85	≥ 6.70
COc1cc2nc(NCCCCNC(=O)OCC(C)C)c3nnc(C(C)C)n3c2cc1OC [Example 602, [4-(1-isopropyl-7,8-dimethoxy-[1,2,4]triazolo[4,3-a]quinoxaline-4-ylamino)-butyl]-carbamic acid isobutylester]	–	7.24	6.54	–
C/C=C/C(=O)NCCCCNc1nc2cc(OCCOC)ccc2n2c(C)nnc12 [Example 379, butene-2-oic acid{4-[7-(2-methoxy-ethoxy)-1-methyl-[1,2,4]triazolo[4,3-a]quinoxaline-4-ylamino]-butyl}-amide]	≥ 7.30	7.77	6.38	–
Cc1nnc2c(NCCCCNC(=O)CC(C)C)nc3cc(NCCCC#N)ccc3n12 [Example 254, N-{4-[7-(3-cyano-propylamino)-1-methyl-[1,2,4]triazolo[4,3-a]quinoxaline-4-ylamino]-butyl}-3-methyl-butyramide]	≥ 8.00	8.15	7.00	≥ 6.70
COCCOc1ccc2c(c1)nc(NCCCCNC(=O)Cc1cccs1)c1nnc(C)n12 [Example 406, N-{4-[7-(2-methoxy-ethoxy)-1-methyl-[1,2,4]triazolo[4,3-a]quinoxaline-4-ylamino]-butyl}-2-thiophene-2-yl-acetamide]	≥ 7.30	7.85	7.72	≥ 6.70
Cc1ccc2[nH]c(-c3ccc4c(c3)nc(NCCCCNC(=O)CC(C)C)c3nnc(C)n34)nc2c1 [Example 223, 3-methyl-N-{4-[1-methyl-7-(5-methyl-1H-benzoimidazole-2-yl)-[1,2,4]triazolo[4,3-a]quinoxaline-4-ylamino]-butyl}-butyramide]	≥ 7.30	7.77	7.85	≥ 6.70
CCC(C)CC(=O)NCCCCNc1nc2cc(N3CCOCC3)ccc2n2c(C)nnc12 (centres unmarked) [Example 501, 3-methyl-pentanoic acid-[4-(1-methyl-7-morpholine-4-yl-[1,2,4]triazolo[4,3-a]quinoxaline-4-ylamino)-butyl]-amide]	≥ 8.00	8.05	7.22	≥ 6.70
Cc1nnc2c(NCCCCNC(=O)CC(C)C)nc3cc(F)c(F)cc3n12 [Example 37, N-[4-(7,8-difluoro-1-methyl-[1,2,4]triazolo[4,3-a]quinoxaline-4-ylamino)-butyl]-3-methyl-butyramide]	≥ 8.00	8.10	6.92	≥ 6.70
COCCOc1ccc2c(c1)nc(NCCCCNC(=O)CC(C)(C)C)c1nnc(C)n12 [Example 382, N-{4-[7-(2-methoxy-ethoxy)-1-methyl-[1,2,4]triazolo[4,3-a]quinoxaline-4-ylamino]-butyl}-3,3-dimethyl-butyramide]	≥ 8.00	8.30	6.08	–
COc1cc2nc(NCCCCNC(=O)Cc3ccco3)c3nnc(C)n3c2cc1OC [Example 85, N-[4-(7,8-dimethoxy-1-methyl-[1,2,4]triazolo[4,3-a]quinoxaline-4-ylamino)-butyl]-2-furan-2-yl-acetamide]	≥ 7.30	7.57	7.30	≥ 6.70
COc1cc2nc(NCCCCNC(=O)C(C)C)c3nnc(C)n3c2cc1OC [Example 70, N-[4-(7,8-dimethoxy-1-methyl-[1,2,4]triazolo[4,3-a]quinoxaline-4-ylamino)-butyl]-isobutyramide]	≥ 7.30	–	6.43	–
COc1ccc2c(c1)nc(NCCCCNC(=O)[C@@H](Br)C(C)C)c1nnc(C)n12 [Example 302, 2-(S)-bromo-N-[4-(7-methoxy-1-methyl-[1,2,4]triazolo[4,3-a]quinoxaline-4-ylamino)-butyl]-3-methyl-butyramide]	≥ 8.00	8.10	7.18	≥ 6.70
COc1cc(C)c2nc(NCCCCNC(=O)OC(C)(C)C)c3nnc(C)n3c2c1 [Example 158, [4-(8-methoxy-1,6-dimethyl-[1,2,4]triazolo[4,3-a]quinoxaline-4-ylamino)-butyl]-carbamic acid-tert-butylester]	≥ 7.30	7.74	6.21	–
Cc1nnc2c(NCCCCNC(=O)CC(C)C)nc3cc(OCc4ccc(C#N)cc4)ccc3n12 [Example 341, N-{4-[7-(4-cyano-benzyloxy)-1-methyl-[1,2,4]triazolo[4,3-a]quinoxaline-4-ylamino]-butyl}-3-methyl-butyramide]	–	7.15	7.28	≥ 6.70
CCC(C)CC(=O)NCCCCNc1nc2c(OC)c(OC)c(OC)cc2n2c(C)nnc12 (centres unmarked) [Example 196, 3-methyl-pentanoic acid-[4-(6,7,8-trimethoxy-1-methyl-[1,2,4]triazolo[4,3-a]quinoxaline-4-ylamino)-butyl]-amide]	≥ 7.30	7.49	6.26	–
COc1cc2nc(NCCCCNC(=O)OCc3ccccc3)c3nnc(C)n3c2cc1OC [Example 68, [4-(7,8-dimethoxy-1-methyl-[1,2,4]triazolo[4,3-a]quinoxaline-4-ylamino)-butyl]-carbamic acid benzylester]	≥ 7.30	7.42	6.35	–
Cc1nnc2c(NCCCCNC(=O)Cc3cccs3)nc3cc(-n4ccnc4)ccc3n12 [Example 496, N-[4-(7-imidazole-1-yl-1-methyl-[1,2,4]triazolo[4,3-a]quinoxaline-4-ylamino)-butyl]-2-thiophene-2-yl-acetamide]	≥ 8.00	8.00	7.70	≥ 6.70
